Results: US11377442B2, “Small molecule agonists and antagonists of NR2F6 activity” (ZANDER THERAPEUTICS, INC., priority 2016, dated 2022)
Read-outs that look alike come from different tables or passages of the source.

How the values were obtained:
Assay type in all cases: cell-based
[1] = target: T1, ERα (Homo sapiens, UniProt P03372); test: Counterscreening, Firefly signal with ERα transient transfection (Firefly_ERa); details: ERα transient transfection, 10 μM
T1 construct: expressed in transfected cells
T1 sequence (P03372 1-595): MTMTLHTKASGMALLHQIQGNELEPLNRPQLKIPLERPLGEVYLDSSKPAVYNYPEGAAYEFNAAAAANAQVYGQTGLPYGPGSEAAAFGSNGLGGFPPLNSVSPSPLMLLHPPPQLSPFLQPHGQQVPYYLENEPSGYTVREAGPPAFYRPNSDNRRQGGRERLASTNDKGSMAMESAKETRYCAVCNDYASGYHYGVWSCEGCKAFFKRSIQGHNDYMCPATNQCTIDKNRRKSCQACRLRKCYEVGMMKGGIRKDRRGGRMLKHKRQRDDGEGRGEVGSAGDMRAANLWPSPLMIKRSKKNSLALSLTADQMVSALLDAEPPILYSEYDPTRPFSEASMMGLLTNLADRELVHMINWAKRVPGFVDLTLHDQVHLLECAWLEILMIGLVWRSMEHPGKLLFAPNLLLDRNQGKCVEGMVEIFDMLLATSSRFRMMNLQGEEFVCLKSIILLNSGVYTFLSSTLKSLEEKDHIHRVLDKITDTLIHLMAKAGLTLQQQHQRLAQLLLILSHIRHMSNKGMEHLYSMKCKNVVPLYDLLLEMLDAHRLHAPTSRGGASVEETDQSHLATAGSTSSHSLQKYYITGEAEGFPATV
Description: The methodology for screening candidate compounds as NR2F6 agonists was as follows: For primary screening, hit criteria was ACT %>DMSO control+5*SD (DSO control) at 10 μM, or any compound with S/B>2. For rescreening, hit criteria was ACT %>DMSO control+3*SD (DSO control) in each replicate at 10 μM. For counterscreening, hit criteria was mean ACT<DMSO control+3*SD (DMSO control) with ERα transient transfection in duplicate at 10 μM.

[2] = test system: Renilla; test: Renilla signal in NR2F6 agonist screening, cmpd/DMSO; details: for fold induction at 10 µM / fold induction at 0.5 µM / fold induction at 2 µM / fold induction at 40 µM: Renilla
[3] = test system: Renilla_ERa; test: Renilla signal in ERα counterscreen (Renilla_ERa); details: ERα transient transfection, 10 μM
[4] = target: T2, NR2F6 (Homo sapiens, UniProt P10588); test: NR2F6 agonist screening, Firefly signal cmpd/DMSO; details: for Firefly, cmpd/DMSO repeat 1 / Firefly, cmpd/DMSO repeat 2: first set screening, 10 μM
T2 construct: expressed in transfected cells; also transient transfection
T2 sequence (P10588 1-404): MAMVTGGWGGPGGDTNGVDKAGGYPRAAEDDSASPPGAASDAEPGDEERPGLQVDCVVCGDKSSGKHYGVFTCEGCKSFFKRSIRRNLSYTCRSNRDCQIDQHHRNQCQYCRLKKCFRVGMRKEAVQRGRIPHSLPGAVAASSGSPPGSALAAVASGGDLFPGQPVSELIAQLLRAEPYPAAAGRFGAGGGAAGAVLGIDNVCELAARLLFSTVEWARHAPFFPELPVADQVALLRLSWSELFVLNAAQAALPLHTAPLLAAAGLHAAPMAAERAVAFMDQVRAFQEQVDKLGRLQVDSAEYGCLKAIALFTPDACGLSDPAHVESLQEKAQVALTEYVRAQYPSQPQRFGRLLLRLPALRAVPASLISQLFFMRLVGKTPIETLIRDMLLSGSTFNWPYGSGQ

[5] = target: T3, NR2F6 LBD (Homo sapiens, UniProt P10588); test: NR2F6 LBD transient transfection; details: LBD
T3 construct: expressed in transfected cells
T3 sequence (P10588 165-393 limits assumed): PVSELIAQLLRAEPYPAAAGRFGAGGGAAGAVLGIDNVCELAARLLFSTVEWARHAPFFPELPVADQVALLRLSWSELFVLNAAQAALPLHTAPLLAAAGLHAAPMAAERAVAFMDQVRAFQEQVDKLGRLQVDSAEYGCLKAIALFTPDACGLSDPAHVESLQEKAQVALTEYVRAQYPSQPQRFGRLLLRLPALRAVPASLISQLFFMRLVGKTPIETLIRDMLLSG
In short: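 LBD-transfected cells treated at 40, 10, 2 and 0.5 μM (4 replicates); cytotoxicity measured in parallel, normalized to DMSO (0%) and zero signal (100%). Higher concentrations excluded where signal loss reflected toxicity.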

[6] = test system: HEK293 pGL4; test: Firefly_pGL signal, cmpd/DMSO (pGL4 control cells); details: Homo sapiens
[7] = first set screening, 10 μM, repeat 1
[8] = first set screening, 10 μM, repeat 2
[9] = F4, read-out: Renilla, F4, cmpd/DMSO (mean)
[10] = F4, 1% FBS, read-out: Renilla, F4, 1% FBS, cmpd/DMSO (mean)
[11] = F4, 10% FBS, read-out: Renilla, F4, 10% FBS, cmpd/DMSO (mean)

## O=C(Nc1ccc(Cl)cn1)c1ccc(I)cc1 [Compound 18]
[1]
  Firefly_ERa, cmpd/DMSO repeat 1: 2.5
  Firefly_ERa, cmpd/DMSO repeat 2: 1.9
[2]; first set screening, 10 μM, repeat 1, read-out: Renilla, cmpd/DMSO repeat 1
  fold induction at 10 µM: 3.3
[2]; first set screening, 10 μM, repeat 2, read-out: Renilla, cmpd/DMSO repeat 2
  fold induction at 10 µM: 4.2
[3]; repeat 1, read-out: Renilla_ERa, cmpd/DMSO repeat 1
  fold induction at 10 µM: 0.8
[3]; repeat 2, read-out: Renilla_ERa, cmpd/DMSO repeat 2
  fold induction at 10 µM: 0.9
[4]
  Firefly, cmpd/DMSO repeat 1: 3.8
  Firefly, cmpd/DMSO repeat 2: 3.8

## Cc1ccnc(NC(=O)c2cc3sc4ccccc4c3s2)c1 [Compound 20]
[1]
  Firefly_ERa, cmpd/DMSO repeat 1: 1.5
  Firefly_ERa, cmpd/DMSO repeat 2: 1.7
[2]; [7]
  Renilla, cmpd/DMSO repeat 1: 4.4
[2]; [8]
  Renilla, cmpd/DMSO repeat 2: 4.8
[3]; repeat 1
  Renilla_ERa, cmpd/DMSO repeat 1: 1.1
[3]; repeat 2
  Renilla_ERa, cmpd/DMSO repeat 2: 0.9
[4]
  Firefly, cmpd/DMSO repeat 1: 2.2
  Firefly, cmpd/DMSO repeat 2: 2.1

## CCn1c2c(c(=O)[nH]c1=O)C(c1ccc(C(C)C)cc1)C1=C(N2)c2ccccc2C1=O (centres unmarked) [Compound 21]
[1]
  Firefly_ERa, cmpd/DMSO repeat 1: 1.1
  Firefly_ERa, cmpd/DMSO repeat 2: 1.0
[2]; [7]
  Renilla, cmpd/DMSO repeat 1: 3.8
[2]; [8]
  Renilla, cmpd/DMSO repeat 2: 3.0
[3]; repeat 1
  Renilla_ERa, cmpd/DMSO repeat 1: 1.1
[3]; repeat 2
  Renilla_ERa, cmpd/DMSO repeat 2: 0.9
[4]
  Firefly, cmpd/DMSO repeat 1: 2.4
  Firefly, cmpd/DMSO repeat 2: 2.2

## Nc1nonc1-c1noc(-c2cccc(COc3ccc(Cl)cc3Cl)c2)n1 [Compound 23]
[1]
  Firefly_ERa, cmpd/DMSO repeat 1: 1.8
  Firefly_ERa, cmpd/DMSO repeat 2: 1.8
[2]; [7]
  Renilla, cmpd/DMSO repeat 1: 4.6
[2]; [8]
  Renilla, cmpd/DMSO repeat 2: 3.4
[3]; repeat 1
  Renilla_ERa, cmpd/DMSO repeat 1: 1.1
[3]; repeat 2
  Renilla_ERa, cmpd/DMSO repeat 2: 1.2
[4]
  Firefly, cmpd/DMSO repeat 1: 3.0
  Firefly, cmpd/DMSO repeat 2: 1.9

## CCc1ccc(OCC(=O)Nc2cc(-c3nc4cc(C)ccc4o3)ccc2C)cc1 [Compound 24]
[1]
  Firefly_ERa, cmpd/DMSO repeat 1: 1.3
  Firefly_ERa, cmpd/DMSO repeat 2: 1.6
[2]; [7]
  Renilla, cmpd/DMSO repeat 1: 2.4
[2]; [8]
  Renilla, cmpd/DMSO repeat 2: 2.2
[3]; repeat 1
  Renilla_ERa, cmpd/DMSO repeat 1: 0.9
[3]; repeat 2
  Renilla_ERa, cmpd/DMSO repeat 2: 1.0
[4]
  Firefly, cmpd/DMSO repeat 1: 2.0
  Firefly, cmpd/DMSO repeat 2: 2.3

## CC(=O)Nc1ccc(S(=O)(=O)[C@H]2CS(=O)(=O)C[C@@H]2NC2CC2)cc1 [Compound D133]
[2]; [9]
  fold induction at 0.5 µM: 1
  fold induction at 2 µM: 1
  fold induction at 40 µM: 1.1
[2]; F4, 10 uM, read-out: Renilla, F4, cmpd/DMSO (mean)
  fold induction at 10 µM: 1.1
[2]; [10]
  fold induction at 0.5 µM: 1
  fold induction at 2 µM: 1
  fold induction at 40 µM: 1.1
[2]; F4, 1% FBS, 10 uM, read-out: Renilla, F4, 1% FBS, cmpd/DMSO (mean)
  fold induction at 10 µM: 1
[2]; [11]
  fold induction at 0.5 µM: 0.9
  fold induction at 2 µM: 0.9
  fold induction at 40 µM: 1
[2]; F4, 10% FBS, 10 uM, read-out: Renilla, F4, 10% FBS, cmpd/DMSO (mean)
  fold induction at 10 µM: 1
[4]; 0.5 uM
  Firefly F4, cmpd/DMSO (mean): 1.0
  Firefly, F4, 1% FBS, cmpd/DMSO (mean): 0.8
  Firefly, F4, 10% FBS, cmpd/DMSO (mean): 1.5
[4]; 2 uM
  Firefly F4, cmpd/DMSO (mean): 1.4
  Firefly, F4, 1% FBS, cmpd/DMSO (mean): 0.8
  Firefly, F4, 10% FBS, cmpd/DMSO (mean): 0.9
[4]; 10 uM
  Firefly F4, cmpd/DMSO (mean): 1.8
  Firefly, F4, 1% FBS, cmpd/DMSO (mean): 1.2
  Firefly, F4, 10% FBS, cmpd/DMSO (mean): 1.0
[4]; 40 uM
  Firefly F4, cmpd/DMSO (mean): 1.3
  Firefly, F4, 1% FBS, cmpd/DMSO (mean): 0.9
  Firefly, F4, 10% FBS, cmpd/DMSO (mean): 1.0
[5]; 0.5 uM
  Firefly LBD, cmpd/DMSO (mean): 1.1
[5]; 2 uM
  Firefly LBD, cmpd/DMSO (mean): 1.1
[5]; 10 uM
  Firefly LBD, cmpd/DMSO (mean): 1.4
[5]; 40 uM
  Firefly LBD, cmpd/DMSO (mean): 1.1
[6]; HEK293, 0.5 uM, pGL4, read-out: Firefly pGL4, cmpd/DMSO (mean)
  fold induction at 0.5 µM: 1.1
[6]; HEK293, 2 uM, pGL4, read-out: Firefly pGL4, cmpd/DMSO (mean)
  fold induction at 2 µM: 1.1
[6]; HEK293, 10 uM, pGL4, read-out: Firefly pGL4, cmpd/DMSO (mean)
  fold induction at 10 µM: 1.9
[6]; HEK293, 40 uM, pGL4, read-out: Firefly pGL4, cmpd/DMSO (mean)
  fold induction at 40 µM: 1.1
[6]; HEK293, pGL4, 1% FBS, 0.5 uM, read-out: Firefly, pGL4, 1% FBS, cmpd/DMSO (mean)
  fold induction at 0.5 µM: 1.3
[6]; HEK293, pGL4, 1% FBS, 2 uM, read-out: Firefly, pGL4, 1% FBS, cmpd/DMSO (mean)
  fold induction at 2 µM: 1.1
[6]; HEK293, pGL4, 1% FBS, 10 uM, read-out: Firefly, pGL4, 1% FBS, cmpd/DMSO (mean)
  fold induction at 10 µM: 1.3
[6]; HEK293, pGL4, 1% FBS, 40 uM, read-out: Firefly, pGL4, 1% FBS, cmpd/DMSO (mean)
  fold induction at 40 µM: 1
[6]; HEK293, pGL4, 10% FBS, 0.5 uM, read-out: Firefly, pGL4, 10% FBS, cmpd/DMSO (mean)
  fold induction at 0.5 µM: 0.9
[6]; HEK293, pGL4, 10% FBS, 2 uM, read-out: Firefly, pGL4, 10% FBS, cmpd/DMSO (mean)
  fold induction at 2 µM: 0.9
[6]; HEK293, pGL4, 10% FBS, 10 uM, read-out: Firefly, pGL4, 10% FBS, cmpd/DMSO (mean)
  fold induction at 10 µM: 1.3
[6]; HEK293, pGL4, 10% FBS, 40 uM, read-out: Firefly, pGL4, 10% FBS, cmpd/DMSO (mean)
  fold induction at 40 µM: 1.2
